# Data: PMC4581254, “Identification of Hydroxyanthraquinones as Novel Inhibitors of Hepatitis C Virus NS3 Helicase” (International Journal of Molecular Sciences, 2015)
# Structures can show the parent of a compound that is named as a salt. Where two headings read alike, the source gives them in different places.
# Experiments:
# HCV NS3 helicase [1] = target: T1, HCV NS3 helicase (Hepatitis C virus genotype 1b, UniProt P26662); test: FRET-based fluorescence helicase assay (dsRNA unwinding); assay type: biochemical
# T1 construct: The full-length HCV NS3 protein, with serine protease and NTPase/helicase activities; made in house
# T1 sequence (P26662 1027-1657): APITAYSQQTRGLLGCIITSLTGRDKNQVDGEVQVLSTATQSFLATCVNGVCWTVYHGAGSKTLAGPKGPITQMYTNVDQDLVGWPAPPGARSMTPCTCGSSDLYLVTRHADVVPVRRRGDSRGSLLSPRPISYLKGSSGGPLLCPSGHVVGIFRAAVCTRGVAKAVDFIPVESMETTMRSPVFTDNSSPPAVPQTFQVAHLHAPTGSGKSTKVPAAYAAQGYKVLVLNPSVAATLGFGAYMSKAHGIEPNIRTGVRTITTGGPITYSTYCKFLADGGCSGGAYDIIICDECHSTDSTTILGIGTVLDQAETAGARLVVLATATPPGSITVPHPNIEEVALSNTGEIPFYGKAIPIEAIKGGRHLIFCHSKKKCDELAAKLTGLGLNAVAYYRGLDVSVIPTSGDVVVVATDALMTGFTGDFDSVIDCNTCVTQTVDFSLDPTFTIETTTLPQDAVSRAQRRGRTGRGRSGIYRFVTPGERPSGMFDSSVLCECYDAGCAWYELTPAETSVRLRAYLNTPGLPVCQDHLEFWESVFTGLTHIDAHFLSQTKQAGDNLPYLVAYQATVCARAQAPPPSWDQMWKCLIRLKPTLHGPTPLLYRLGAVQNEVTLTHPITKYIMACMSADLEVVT
# Experimental: A fluorescence helicase assay based on FRET [26, 27], with modifications in the fluorescent dyes, was used to examine NS3 helicase inhibition by different compounds. […] The concentration of the capture strand was optimized to 400 nM based on the Z′ value; the Z′ value validates assay conditions as having reliability and reproducibility when its value is close to 1.
# The FRET-based fluorescence helicase assay was performed as described previously, with modifications in the fluorescent dyes used. The dsRNA substrate was prepared by annealing the 5′ Alexa Fluor 700-labeled fluorescence strand to the 3′ BHQ3-labeled quencher strand in a 1:2 molar ratio. The dsRNA substrate contained the 3′-overhang that is necessary for the NS3 helicase to bind to it prior to duplex unwinding. The capture strand had sequence complementary to the quencher strand and prevented the unwound duplexes from reannealing. All the nucleic acid strands had the same nucleic acid sequences as described previously and were purchased from Japan Bio Services (Saitama, Japan). The reaction mixture contained 25 mM MOPS-NaOH (pH 6.5), 3 mM MgCl2, 2 mM dithiothreitol, 4 U RNasin (Promega, Madison, WI, USA), 50 nM dsRNA substrate, 400 nM capture strand, 5 mM ATP, a serial dilution of test compounds in DMSO vehicle, and 240 nM NS3 helicase in a total reaction volume of 20 µL. The full-length HCV NS3 protein, with serine protease and NTPase/helicase activities, was expressed and purified as described previously.
# The reaction was started by the addition of HCV NS3 helicase and was performed at 37 °C for 30 min in a SpectraMax Gemini XS microplate reader (Molecular Devices, Sunnyvale, CA, USA). The fluorescence intensity was recorded every 20 s for 30 min. Helicase activity was calculated as the initial reaction velocity relative to that of the control (in the absence of a test compound but presence of DMSO vehicle). The IC50 was calculated using KaleidaGraph (Synergy Software, Reading, PA, USA) by fitting plots of % activity vs. [I] using Equation (1) unless otherwise stated: (1) % Activity= 100/1+([I]/IC50)^h where h is the Hill coefficient, and [I] is the inhibitor concentration.
# NS3 helicase = conditions: read-out: IC50 for NS3 helicase inhibition, cited from earlier work
# Cytotoxicity assay (MTS) = assay type: cell-based; conditions: human, Huh-7 replicon cells, mean ± SD of three replicates, read-out: CC50 (reduction in cell viability)
# Experimental: The Huh-7 cell line harboring the subgenomic replicon RNAs of HCV genotype 1b strain N [51] was seeded at 2 × 10^4 cells per well in a 48-well plate and incubated at 37 °C for 24 h. The cells were treated with hypericin or sennidin A at various concentrations at 37 °C for 72 h. The MTS assay was carried out to determine cytotoxicity using a CellTiter 96 aqueous one-solution cell proliferation assay kit (Promega) according to the manufacturer’s instructions. The cytotoxicity of hypericin or sennidin A was calculated as the ratio of the […] in the sample containing inhibitor to that in the control sample containing DMSO vehicle instead of inhibitor.
# NS3 ATPase activity = target: T2, NS3 ATPase activity (Hepatitis C virus genotype 1b, UniProt P26662); test: ATPase assay ([γ-32P]ATP hydrolysis, thin-layer chromatography); assay type: biochemical; conditions: autoradiography, poly(U) RNA, 300 nM NS3, 0–100 µM tested
# T2 construct: The full-length HCV NS3 protein, with serine protease and NTPase/helicase activities; made in house
# T2 sequence (P26662 1027-1657): as above
# Experimental: As the unwinding ability of NS3 helicase is dependent on ATP hydrolysis, the amount of inorganic phosphate (Pi) released from radioisotope-labeled ATP ([γ-^32P]ATP) was measured to determine the effects of hypericin on the ATPase activity of NS3 (Figure 3). The released ^32Pi was separated by thin-layer chromatography and visualized using autoradiography. The density of the upper spots corresponding to Pi, which represents ATPase activity, decreased dose-dependently, particularly in the concentration range of 1–5 µM hypericin. […] It is thus likely that hypericin inhibits NS3 helicase via the inhibition of ATPase activity.
# NS3 ATPase activity was determined directly by monitoring [γ-^32P]ATP hydrolysis by thin-layer chromatography, as described previously. The reaction mixture contained 25 mM MOPS-NaOH (pH 7.0), 1 mM dithiothreitol, 5 mM MgCl2, 5 mM CaCl2, 1 mM [γ-^32P]ATP (Muromachi Yakuhin, Tokyo, Japan), 300 nM NS3, 0.1 μg/μL poly(U) ssRNA (Sigma-Aldrich), and increasing concentrations of hypericin in a total reaction volume of 10 μL. The reaction was conducted at 37 °C for 10 min, and stopped by the addition of 10 mM EDTA. […] The cellulose sheet was dried, and the released [γ-^32P]phosphoric acid was visualized using an Image Reader FLA-9000 (Fuji film, Tokyo, Japan).
# NS3 RNA-binding activity = target: T3, NS3 RNA-binding activity (Hepatitis C virus genotype 1b, UniProt P26662); test: RNA-binding assay (gel mobility-shift); conditions: 32P-labeled ssRNA, 300 nM NS3, 0–100 µM tested
# T3 construct: The full-length HCV NS3 protein, with serine protease and NTPase/helicase activities; made in house
# T3 sequence (P26662 1027-1657): as above
# Experimental: As RNA binding is required for NS3 helicase activity, the effect of hypericin on NS3 RNA-binding activity was examined by gel mobility-shift assay (Figure 4). As a control, the non-specific binding of ssRNA to bovine serum albumin (BSA) was assessed (lane 2). The density of the upper bands corresponding to the NS3–ssRNA complex, which represents NS3 RNA-binding activity, decreased dose-dependently in the presence of hypericin, particularly in the concentration range of 3–10 µM.
# NS3 RNA-binding activity was determined by gel mobility-shift assay, as described previously. The ssRNA (5′-[…]-3′) synthesized by Gene Design (Osaka, Japan) was labeled at the 5′-end with [γ-^32P]ATP (Muromachi Yakuhin) using T4 polynucleotide kinase (Toyobo, Osaka, Japan) at 37 °C for 60 min, and purified using the phenol-chloroform extraction method. The reaction mixture contained 30 mM Tris-HCl (pH 7.5), 100 mM NaCl, 2 mM MgCl2, 1 mM dithiothreitol, 20 U RNasin Plus (Promega), 300 nM NS3, 0.5 nM ^32P-labeled ssRNA, and increasing concentrations of hypericin in a total reaction volume of 20 μL. The reaction was performed at room temperature for 15 min. […] The labeled RNA bands were visualized using an Image Reader FLA-9000 (Fujifilm, Tokyo, Japan).
# HCV NS3 helicase [2] = target: T1, HCV NS3 helicase; test: Gel-based helicase assay; assay type: biochemical; conditions: compared with the fluorescence helicase assay, Figure S2
# Experimental: A gel-based helicase assay was performed as described previously. The dsRNA substrate was prepared by annealing the 5′ Alexa Fluor 488-labeled fluorescence strand to the non-labeled complementary strand in a 1:2 molar ratio. The dsRNA substrate and the capture strand had the same nucleic acid sequences as those used in the FRET-based fluorescence helicase assay, and were purchased from Japan Bio Services. The reaction mixture for HCV NS3 helicase had the same components as those used in the FRET-based fluorescence helicase assay, with increasing concentrations of a test compound in a total reaction volume of 20 µL, except for the fact that the concentration of the capture strand was 100 nM. The reaction was started by the addition of HCV NS3 helicase and performed at 37 °C for 60 min using the GeneAmp PCR System 2700 (Applied Biosystems, Foster City, CA, USA). […] The helicase activity was calculated as the ratio of the signal intensity derived from ssRNA in the sample containing inhibitor to that in the control sample containing DMSO vehicle instead of inhibitor.
# [3] = tested on: Huh-7 cell line harboring the subgenomic replicon RNAs of HCV genotype 1b strain N; test: HCV replicon assay (luciferase); assay type: cell-based, Hepatitis C virus; conditions: for EC50: Hepatitis C virus, HCV subgenomic replicon, genotype 1b strain N, Huh-7, 72 h, mean ± SD of three replicates, read-out: EC50 (inhibition of HCV replication)
# Experimental: The Huh-7 cell line harboring the subgenomic replicon RNAs of HCV genotype 1b strain N [51] was seeded at 2 × 10^4 cells per well in a 48-well plate and incubated at 37 °C for 24 h. The cells were treated with hypericin or sennidin A at various concentrations at 37 °C for 72 h, and then lysed in cell culture lysis reagent (Promega). A luciferase assay system (Promega) was used to determine the luciferase activity, and the luminescence was measured using a Luminescencer-JNR AB-2100 (ATTO, Tokyo, Japan), corresponding to the expression level of the HCV replicon. The anti-HCV activity of hypericin or sennidin A was calculated as the ratio of the intensity of the luminescence in the sample containing inhibitor to that in the control sample containing DMSO vehicle instead of inhibitor.
# [4] = fluorescence helicase assay, dsRNA substrate, 240 nM NS3, 5 mM ATP, 37 °C, read-out: IC50 for NS3 helicase inhibition
structure (smiles),measurement,setting,value
"O=C1c2ccccc2C(=O)c2c1cc(O)c(O)c2O [1,2,3-trihydroxyanthraquinone]",IC50,HCV NS3 helicase [1]; [4],18 µM
"O=C1c2ccccc2C(=O)c2c(O)c(O)cc(O)c21 [1,2,4-trihydroxyanthraquinone]",IC50,HCV NS3 helicase [1],11 µM
"O=C1c2ccccc2C(=O)c2c1ccc(O)c2O [1,2-dihydroxyanthraquinone]",IC50,HCV NS3 helicase [1],> 200 µM
"O=C1c2ccc(O)c(O)c2C(=O)c2c(O)ccc(O)c21 [1,4,5,6-tetrahydroxyanthraquinone]",IC50,HCV NS3 helicase [1]; [4],98 µM
"O=C1c2c(O)ccc(O)c2C(=O)c2c(O)ccc(O)c21 [1,4,5,8-tetrahydroxyanthraquinone]",IC50,HCV NS3 helicase [1]; [4],6 µM
"O=C1c2ccccc2C(=O)c2c(O)ccc(O)c21 [1,4-dihydroxyanthraquinone]",IC50,HCV NS3 helicase [1]; [4],54 µM
"O=C1c2cccc(O)c2C(=O)c2cccc(O)c21 [1,5-dihydroxyanthraquinone]",IC50,HCV NS3 helicase [1]; [4],> 200 µM
"O=C1c2cccc(O)c2C(=O)c2c(O)cccc21 [1,8-dihydroxyanthraquinone]",IC50,HCV NS3 helicase [1]; [4],> 200 µM
CC(C)CCC[C@@H](C)[C@H]1CC[C@H]2[C@@H]3CC=C4C[C@@H](OS(=O)(=O)O)CC[C@]4(C)[C@H]3CC[C@]12C [Cholesterol sulfate],IC50,NS3 helicase; positive control of the gel-based helicase assay,1.7 µM
"Cc1cc(O)c2c(=O)c3c(O)cc(O)c4c5c(O)cc(O)c6c(=O)c7c(O)cc(C)c8c1c2c(c34)c(c78)c65 [Hypericin, hypericin]",CC50 at 72 h,Cytotoxicity assay (MTS),41.1 ± 9.5 µM
same,IC50,HCV NS3 helicase [1],3 µM
same,Concentration range in which NS3 ATPase activity decreased dose-dependently,NS3 ATPase activity,1 to 5 µM
same,Concentration range in which NS3 RNA-binding activity decreased dose-dependently,NS3 RNA-binding activity,3 to 10 µM
same,NS3 helicase inhibition in gel-based helicase assay,HCV NS3 helicase [2],quite similar to that in the fluorescence helicase assay
same,"SI, selectivity index (CC50/EC50)",[3]; CC50/EC50 in Huh-7 replicon cells,11.7
same,EC50,[3],3.5 ± 0.2 µM
"O=C(O)c1cc(O)c2c(c1)[C@H]([C@@H]1c3cccc(O)c3C(=O)c3c(O)cc(C(=O)O)cc31)c1cccc(O)c1C2=O [Sennidin A, sennidin A]",CC50 at 72 h,Cytotoxicity assay (MTS),> 80 µM
same,IC50,HCV NS3 helicase [1]; [4],0.8 µM
same,NS3 helicase inhibition in gel-based helicase assay,HCV NS3 helicase [2],quite similar to that in the fluorescence helicase assay
same,EC50,[3],> 80 µM
O=C1c2c(O)ccc(O)c2C(=O)c2c(NCCNCCO)ccc(NCCNCCO)c21 [mitoxantrone],IC50,NS3 helicase,6.7 µM
